# Test results: US20250066286A1, “COMPOSITIONS OF (Z)-ENDOXIFEN AND METHODS OF ENRICHMENT THEREOF” (Atossa Therapeutics, Inc., priority 2022, published 2025)
# Read-outs that look alike come from different tables or passages of the source.
# Test: Solubility testing of (Z)-endoxifen in single solvents
# Format: physicochemical
# Conditions: for solubility at 15 min: 25 °C, room temperature; for solubility at 15 min / solubility: thermodynamic from solid
# Experimental: To test the solubility of (Z)-endoxifen in varying conditions, 10 mg of (Z)-endoxifen was added to a stoppered tube, and 0.01 ml of the selected solvent was added (1000 mg/ml solution). The tube was shaken vigorously for 1 minute and then incubated at a constant temperature of 25.0° C. for 15 minutes. If the solid was not completed dissolved, the tube was shaken again and placed at the constant temperature of 25.0° C. for another 15 minutes. If the solid was completely dissolved at this step, it was considered to be very soluble in the selected solvent system. If the solid was not dissolved by this step, another 0.09 ml was added (yielding a 100 mg/ml solution) and an attempt to further dissolve the solid was made by the same steps of shaking and incubating twice over as described previously. If the solid was completely dissolved at this step, it was considered freely soluble. If the solid was not dissolved by this step another 0.2 ml was added (yielding a 33.3 mg/ml solution) and an attempt to further dissolve the solid was made by the same steps of shaking and incubating twice over as described previously. If the solid was completely dissolved at this step, it was considered soluble. If the solid was not dissolved by this step another, 0.7 ml was added (yielding a 10 mg/ml solution) and an attempt to further dissolve the solid was made by the same steps of shaking and incubating twice over as described previously. If the solid was completely dissolved at this step, it was considered sparingly soluble. If the solid was not dissolved by this step the sample was considered to be slightly soluble or very slightly soluble and the solution was heated until the boiling point of the solvent system (max 100° C.) under stirring with a rate of 0.5° C. per minute temperature ramp rate to verify the solubility at high temperatures. The hot solution was after cooled to room temperature with a cooling rate of 0.5° C. per minute to verify if the sample had precipitated after up to 18 hours under magnetic stirring. The same procedure was also used for the solvent mixture solubility tests. The concentrations investigated for the solvent mixture stability were 40 mg/ml and 100 mg/ml. Some solutions in the following example were precipitated by cooling of the solution from a temperature between 50-100° C. to between 10-25° C. at a rate ranging from −0.2 to −0.5° C./minute resulting in a precipitate.
# [1] = solvent butyl acetate, 100 mg/mL
# [2] = solvent ethyl acetate, 100 mg/mL
# [3] = solvent methyl isobutyl ketone (4-methyl-2-pentanone), 100 mg/mL
# [4] = solvent methyl isobutyl ketone (4-methyl-2-pentanone), 200 mg/mL
structure (smiles),measurement,setting,value
"CC/C(=C(\c1ccc(O)cc1)c1ccc(OCCNC)cc1)c1ccccc1 [(Z)-endoxifen, (Z)-4-(1-(4-(2-(methylamino)ethoxy)phenyl)-2-phenylbut-1-enyl)phenol]",Solubility HT (10 mg/mL): Clear point,"solvent butyl acetate, 10 mg/mL",50 °C
same,Solubility HT (10 mg/mL): Sol. HT,"solvent butyl acetate, 10 mg/mL, high temperature",YES
same,Solubility HT (20 mg/mL): Clear point,"solvent butyl acetate, 20 mg/mL",56.8 °C
same,Solubility HT (20 mg/mL): Sol. HT,"solvent butyl acetate, 20 mg/mL, high temperature",YES
same,Solubility HT (100 mg/mL): Clear point,[1],94.5 °C
same,Solubility HT (100 mg/mL): Cloudy point,[1],25 °C
same,Solubility HT (100 mg/mL): Sol. HT,"solvent butyl acetate, 100 mg/mL, high temperature",YES
same,Solubility HT (100 mg/mL): Re-PPT,"solvent butyl acetate, 100 mg/mL, on cooling",YES
same,Solubility HT (10 mg/mL): Clear point,"solvent ethanol, 10 mg/mL",34 °C
same,Solubility HT (10 mg/mL): Sol. HT,"solvent ethanol, 10 mg/mL, high temperature",YES
same,Solubility HT (20 mg/mL): Clear point,"solvent ethanol, 20 mg/mL",34 °C
same,Solubility HT (20 mg/mL): Sol. HT,"solvent ethanol, 20 mg/mL, high temperature",YES
same,Solubility HT (20 mg/mL): Re-PPT,"solvent ethanol, 20 mg/mL, on cooling",YES
same,Solubility HT (100 mg/mL): Clear point,"solvent ethanol, 100 mg/mL",66 °C
same,Solubility HT (100 mg/mL): Cloudy point,"solvent ethanol, 100 mg/mL",39.7 °C
same,Solubility HT (100 mg/mL): Sol. HT,"solvent ethanol, 100 mg/mL, high temperature",YES
same,Solubility HT (100 mg/mL): Re-PPT,"solvent ethanol, 100 mg/mL, on cooling",YES
same,Solubility HT (10 mg/mL): Clear point,"solvent ethyl acetate, 10 mg/mL",38 °C
same,Solubility HT (10 mg/mL): Sol. HT,"solvent ethyl acetate, 10 mg/mL, high temperature",YES
same,Solubility HT (20 mg/mL): Clear point,"solvent ethyl acetate, 20 mg/mL",49.2 °C
same,Solubility HT (20 mg/mL): Sol. HT,"solvent ethyl acetate, 20 mg/mL, high temperature",YES
same,Solubility HT (100 mg/mL): Clear point,[2],74.4 °C
same,Solubility HT (100 mg/mL): Cloudy point,[2],54.2 °C
same,Solubility HT (100 mg/mL): Sol. HT,"solvent ethyl acetate, 100 mg/mL, high temperature",YES
same,Solubility HT (100 mg/mL): Re-PPT,"solvent ethyl acetate, 100 mg/mL, on cooling",YES
same,Solubility HT (10 mg/mL): Clear point,"solvent methyl isobutyl ketone (4-methyl-2-pentanone), 10 mg/mL",44 °C
same,Solubility HT (10 mg/mL): Sol. HT,"solvent methyl isobutyl ketone (4-methyl-2-pentanone), 10 mg/mL, high temperature",YES
same,Solubility HT (20 mg/mL): Clear point,"solvent methyl isobutyl ketone (4-methyl-2-pentanone), 20 mg/mL",49.3 °C
same,Solubility HT (20 mg/mL): Sol. HT,"solvent methyl isobutyl ketone (4-methyl-2-pentanone), 20 mg/mL, high temperature",YES
same,Solubility HT (100 mg/mL): Clear point,[3],74.8 °C
same,Solubility HT (100 mg/mL): Re-PPT after 18 hours at −20° C.,[3],YES
same,Solubility HT (100 mg/mL): Sol. HT,"solvent methyl isobutyl ketone (4-methyl-2-pentanone), 100 mg/mL, high temperature",YES
same,Solubility HT (200 mg/mL): Clear Point,[4],84 °C
same,Solubility HT (200 mg/mL): Cloudy point,[4],48.5 °C
same,Solubility HT (200 mg/mL): Sol. HT,"solvent methyl isobutyl ketone (4-methyl-2-pentanone), 200 mg/mL, high temperature",YES
same,Solubility HT (200 mg/mL): Re-PPT,"solvent methyl isobutyl ketone (4-methyl-2-pentanone), 200 mg/mL, on cooling",YES
same,Solubility HT (10 mg/mL): Clear point,"solvent toluene, 10 mg/mL",66 °C
same,Solubility HT (10 mg/mL): Sol. HT,"solvent toluene, 10 mg/mL, high temperature",YES
same,Solubility HT (20 mg/mL): Clear point,"solvent toluene, 20 mg/mL",77.8 °C
same,Solubility HT (20 mg/mL): Sol. HT,"solvent toluene, 20 mg/mL, high temperature",YES
same,Solubility HT (100 mg/mL): Clear point,"solvent toluene, 100 mg/mL",96.6 °C
same,Solubility HT (100 mg/mL): Cloudy point,"solvent toluene, 100 mg/mL",25 °C
same,Solubility HT (100 mg/mL): Sol. HT,"solvent toluene, 100 mg/mL, high temperature",YES
same,Solubility HT (100 mg/mL): Re-PPT,"solvent toluene, 100 mg/mL, on cooling",YES
same,solubility at 15 min,"t-butyl methyl ether, organic solvent or mixture, t-butyl methyl ether, read-out: Solubility",< 10000 µg/mL
same,solubility,"t-butyl methyl ether, organic solvent or mixture, t-butyl methyl ether, high temperature, read-out: Solubility",< 10000 µg/mL
same,solubility at 15 min,"tetrahydrofuran, organic solvent or mixture, solvent tetrahydrofuran, read-out: Solubility at RT",111000 to 125000 µg/mL
same,solubility at 15 min,"toluene, organic solvent or mixture, solvent toluene, read-out: Solubility at RT",10000 µg/mL
same,solubility at 15 min,"toluene, organic solvent or mixture, toluene, read-out: Solubility",10000 µg/mL
same,solubility,"toluene, organic solvent or mixture, toluene, high temperature, read-out: Solubility",20000 to 100000 µg/mL
same,solubility at 15 min,"water, water, solvent water, read-out: Solubility at RT",< 10000 µg/mL
same,solubility at 15 min,"water, water, water, read-out: Solubility",< 10000 µg/mL
same,solubility,"water, 100 °C, water, solvent water, 10 mg/mL, high temperature, read-out: Solubility HT (10 mg/mL): Sol. HT",< 10000 µg/mL
same,solubility,"water, 100 °C, water, water, high temperature, read-out: Solubility",< 10000 µg/mL
